In the Kinase Knowledgebase extract (Sharma et al. 2016):
pIC50: −log10 of the molar value. Several values for one entry are separate records, joined by “and”; a condition that tells them apart may be missing. Equal values may be shown once.

Experiments:
[1] = target: EGFR (Human), P00533 [T790M/L858R]; details: baf3
EGFR (human) = EGFR (human) (UniProt P00533)
[2] = target: EGFR (Human), P00533 [Assessment of EGFR-Del T790M Dependent Cell Proliferation in BaF3 Cells]
[3] = target: EGFR (human), P00533 [L858R]
[4] = target: EGFR (Human), P00533 [T790M/L858R]

EGFR (Human), P00533 [T790M/L858R], sequence (P00533 whole entry T790M/L858R, looked up): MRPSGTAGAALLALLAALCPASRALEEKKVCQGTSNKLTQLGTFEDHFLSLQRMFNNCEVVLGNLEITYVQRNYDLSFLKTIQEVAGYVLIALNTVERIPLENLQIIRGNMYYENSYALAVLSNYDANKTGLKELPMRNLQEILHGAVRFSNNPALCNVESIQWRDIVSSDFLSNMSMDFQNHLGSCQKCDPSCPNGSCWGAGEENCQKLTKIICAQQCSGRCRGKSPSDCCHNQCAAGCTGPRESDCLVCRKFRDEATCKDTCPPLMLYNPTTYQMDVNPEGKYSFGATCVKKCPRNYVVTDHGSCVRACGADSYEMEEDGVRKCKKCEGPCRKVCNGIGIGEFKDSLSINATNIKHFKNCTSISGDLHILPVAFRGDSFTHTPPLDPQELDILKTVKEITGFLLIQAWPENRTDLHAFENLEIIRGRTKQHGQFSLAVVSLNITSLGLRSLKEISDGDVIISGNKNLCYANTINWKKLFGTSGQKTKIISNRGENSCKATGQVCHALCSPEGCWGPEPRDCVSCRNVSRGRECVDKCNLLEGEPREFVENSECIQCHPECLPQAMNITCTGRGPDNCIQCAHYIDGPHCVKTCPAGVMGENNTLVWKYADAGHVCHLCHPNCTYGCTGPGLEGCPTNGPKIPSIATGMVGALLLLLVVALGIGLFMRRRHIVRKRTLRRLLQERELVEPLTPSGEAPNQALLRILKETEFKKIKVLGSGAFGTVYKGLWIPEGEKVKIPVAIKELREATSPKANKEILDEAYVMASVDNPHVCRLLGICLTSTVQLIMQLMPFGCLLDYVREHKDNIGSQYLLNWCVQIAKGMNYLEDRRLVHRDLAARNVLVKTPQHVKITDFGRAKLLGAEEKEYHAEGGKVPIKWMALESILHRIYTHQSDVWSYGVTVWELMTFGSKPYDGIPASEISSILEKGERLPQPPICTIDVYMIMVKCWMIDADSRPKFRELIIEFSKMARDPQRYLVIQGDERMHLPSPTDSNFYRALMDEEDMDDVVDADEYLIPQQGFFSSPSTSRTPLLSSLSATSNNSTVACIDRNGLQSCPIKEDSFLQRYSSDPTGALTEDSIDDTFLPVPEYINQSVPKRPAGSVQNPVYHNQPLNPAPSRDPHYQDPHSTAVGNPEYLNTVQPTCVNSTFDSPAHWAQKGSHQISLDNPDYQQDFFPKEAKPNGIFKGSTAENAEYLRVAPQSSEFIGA
EGFR (human), P00533 [L858R], sequence (P00533 whole entry L858R, looked up): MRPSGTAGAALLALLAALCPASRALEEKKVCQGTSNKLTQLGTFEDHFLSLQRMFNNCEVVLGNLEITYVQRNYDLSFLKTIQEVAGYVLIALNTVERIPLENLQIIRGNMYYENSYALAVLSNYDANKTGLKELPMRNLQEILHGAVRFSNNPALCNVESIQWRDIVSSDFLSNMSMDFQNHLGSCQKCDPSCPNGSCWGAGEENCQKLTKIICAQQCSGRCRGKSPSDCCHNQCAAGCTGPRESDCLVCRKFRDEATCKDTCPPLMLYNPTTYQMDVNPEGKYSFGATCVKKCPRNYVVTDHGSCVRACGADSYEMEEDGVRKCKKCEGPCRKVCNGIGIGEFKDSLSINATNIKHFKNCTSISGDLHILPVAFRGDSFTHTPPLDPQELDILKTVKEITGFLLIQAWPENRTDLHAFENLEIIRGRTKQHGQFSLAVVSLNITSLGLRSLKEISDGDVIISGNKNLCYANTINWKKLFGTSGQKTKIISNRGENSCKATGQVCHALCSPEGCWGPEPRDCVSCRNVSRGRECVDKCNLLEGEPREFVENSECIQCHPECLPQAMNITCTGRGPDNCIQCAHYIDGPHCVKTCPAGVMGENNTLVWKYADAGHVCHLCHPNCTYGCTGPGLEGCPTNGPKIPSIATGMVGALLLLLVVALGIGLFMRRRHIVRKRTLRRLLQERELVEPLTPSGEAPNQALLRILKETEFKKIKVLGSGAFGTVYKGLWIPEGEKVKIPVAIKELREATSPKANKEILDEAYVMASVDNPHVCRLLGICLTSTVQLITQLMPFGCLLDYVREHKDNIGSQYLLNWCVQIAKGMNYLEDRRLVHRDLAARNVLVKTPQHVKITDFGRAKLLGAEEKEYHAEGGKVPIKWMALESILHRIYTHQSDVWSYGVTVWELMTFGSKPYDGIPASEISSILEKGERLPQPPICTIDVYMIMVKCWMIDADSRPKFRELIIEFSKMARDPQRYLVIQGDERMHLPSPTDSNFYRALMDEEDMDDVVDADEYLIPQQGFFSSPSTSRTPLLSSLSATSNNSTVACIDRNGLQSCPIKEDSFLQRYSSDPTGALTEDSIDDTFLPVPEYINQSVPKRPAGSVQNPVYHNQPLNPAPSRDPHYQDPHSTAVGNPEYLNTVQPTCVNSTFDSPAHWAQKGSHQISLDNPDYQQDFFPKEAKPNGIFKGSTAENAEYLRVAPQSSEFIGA
EGFR (human), sequence (P00533 whole entry, looked up): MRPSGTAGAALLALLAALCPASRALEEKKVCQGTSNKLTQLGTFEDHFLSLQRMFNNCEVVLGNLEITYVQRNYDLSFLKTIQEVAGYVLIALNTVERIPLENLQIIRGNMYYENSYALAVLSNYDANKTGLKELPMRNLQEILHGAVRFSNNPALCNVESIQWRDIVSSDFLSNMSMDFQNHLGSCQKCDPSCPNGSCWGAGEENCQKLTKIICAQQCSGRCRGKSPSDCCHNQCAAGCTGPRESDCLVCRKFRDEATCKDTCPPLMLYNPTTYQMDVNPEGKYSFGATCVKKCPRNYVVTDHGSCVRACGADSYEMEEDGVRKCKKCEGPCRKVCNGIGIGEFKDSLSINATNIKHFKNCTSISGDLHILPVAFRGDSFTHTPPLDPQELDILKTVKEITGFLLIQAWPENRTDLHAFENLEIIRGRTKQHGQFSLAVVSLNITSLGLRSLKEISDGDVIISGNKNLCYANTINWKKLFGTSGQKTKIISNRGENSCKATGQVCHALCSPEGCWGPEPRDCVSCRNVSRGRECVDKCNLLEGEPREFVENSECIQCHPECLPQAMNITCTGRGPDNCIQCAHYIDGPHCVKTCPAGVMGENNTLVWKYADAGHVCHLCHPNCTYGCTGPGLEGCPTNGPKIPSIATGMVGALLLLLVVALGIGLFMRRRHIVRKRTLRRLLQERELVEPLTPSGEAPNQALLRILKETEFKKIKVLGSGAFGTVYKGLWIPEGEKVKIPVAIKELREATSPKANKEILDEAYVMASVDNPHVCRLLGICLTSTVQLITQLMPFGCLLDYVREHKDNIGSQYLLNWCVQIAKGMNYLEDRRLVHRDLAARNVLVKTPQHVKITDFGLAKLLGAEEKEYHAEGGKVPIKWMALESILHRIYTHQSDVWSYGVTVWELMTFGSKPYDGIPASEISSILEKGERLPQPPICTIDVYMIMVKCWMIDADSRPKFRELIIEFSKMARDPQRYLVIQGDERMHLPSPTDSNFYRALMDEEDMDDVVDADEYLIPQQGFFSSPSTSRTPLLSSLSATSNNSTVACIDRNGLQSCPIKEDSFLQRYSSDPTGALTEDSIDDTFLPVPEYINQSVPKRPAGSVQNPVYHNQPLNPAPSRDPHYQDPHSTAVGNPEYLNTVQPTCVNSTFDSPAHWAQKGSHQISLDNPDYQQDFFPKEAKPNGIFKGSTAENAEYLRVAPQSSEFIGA
EGFR (Human), P00533 [Assessment of EGFR-Del T790M Dependent Cell Proliferation in BaF3 Cells], sequence (P00533 whole entry, looked up, stated change not applied): as the sequence (P00533 whole entry, looked up) above

| pIC50 [1] | pIC50 (EGFR (human)) | pIC50 [2] | pIC50 [3] | pIC50 [4] | Structure (SMILES) |
| --- | --- | --- | --- | --- | --- |
| 6.60 to 7.00 | 6.60 to 7.00 | 6.60 to 7.00 | > 7.30 | > 7.30 | C=CC(=O)Nc1cc(Nc2ncc(Cl)c(Nc3ccccc3P(C)(C)=O)n2)c(OC)cc1OCCCN1CCOCC1 |
| > 7.30 | > 7.30 | > 7.30 | > 7.30 | > 7.30 | C=CC(=O)Nc1cc(Nc2ncc(Cl)c(Nc3ccccc3P(C)(C)=O)n2)c(OC)cc1C#CC(C)(C)N(C)C |
| 6.60 to 7.00 | 7.00 to 7.30 | 7.00 to 7.30 | > 7.30 | > 7.30 | C=CC(=O)Nc1cc(Nc2ncc(Cl)c(Nc3ccccc3P(C)(C)=O)n2)c(OC)cc1OCc1cccnc1 |
| 6.60 to 7.00 | – | > 7.30 | > 7.30 | > 7.30 | CC#CC(=O)Nc1cc(Nc2ncc(Cl)c(Nc3ccccc3P(C)(C)=O)n2)c(OC)cc1OCCN1CCCC1 |
| > 7.30 | > 7.30 | > 7.30 | > 7.30 | > 7.30 | COc1ccc(NC(=O)C#CCN(C)C)cc1Nc1ncc(Cl)c(Nc2ccccc2P(C)(C)=O)n1 |
| 6.60 to 7.00 | – | 7.00 to 7.30 | > 7.30 | 7.00 to 7.30 | C=CC(=O)Nc1cc(Nc2ncc(Cl)c(Nc3ccccc3P(C)(C)=O)n2)c(OC)cc1OCC1CCOCC1 |
| > 7.30 | > 7.30 | > 7.30 | > 7.30 | > 7.30 | C=CC(=O)Nc1cc(Nc2ncc(C3CC3)c(Nc3ccccc3P(C)(C)=O)n2)c(OC)cc1N(C)CCN(CC)CC |
| > 7.30 | > 7.30 | > 7.30 | > 7.30 | > 7.30 | COc1ccc(NC(=O)C#CC(C)(C)N2CCCC2)cc1Nc1ncc(Cl)c(Nc2ccccc2P(C)(C)=O)n1 |
| > 7.30 | > 7.30 | > 7.30 | > 7.30 | > 7.30 | C=CC(=O)Nc1ccc(CC)c(Nc2ncc(Cl)c(Nc3ccccc3P(C)(C)=O)n2)c1 |
| > 7.30 | > 7.30 | > 7.30 | > 7.30 | > 7.30 | C=C(CN1CCN(C)CC1)C(=O)Nc1ccc(OC)c(Nc2ncc(Cl)c(Nc3ccccc3P(C)(C)=O)n2)c1 |
| > 7.30 | 7.00 to 7.30 | > 7.30 | > 7.30 | > 7.30 | C=CC(=O)Nc1ccc(OC)c(Nc2ncc(Cl)c(Nc3ccc(OCC4CCOCC4)cc3P(C)(C)=O)n2)c1 |
| > 7.30 | > 7.30 | > 7.30 | > 7.30 | > 7.30 | C=C(CN1CCN(S(C)(=O)=O)CC1)C(=O)Nc1ccc(OC)c(Nc2ncc(Cl)c(Nc3ccccc3P(C)(C)=O)n2)c1 |
| > 7.30 | > 7.30 | > 7.30 | > 7.30 | > 7.30 | C=CC(=O)Nc1cc(Nc2ncc(Cl)c(Nc3ccccc3P(C)(C)=O)n2)c(OC)cc1N1CCCN(C)CC1 |
| 6.60 to 7.00 | > 7.30 | 6.60 to 7.00 | > 7.30 | > 7.30 | COc1cc(N2CCCC2)c(NC(=O)C#CCCN2CCN(C)CC2)cc1Nc1ncc(Cl)c(Nc2ccccc2P(C)(C)=O)n1 |
| > 7.30 | > 7.30 | > 7.30 | > 7.30 | > 7.30 | C=CC(=O)Nc1cc(Nc2ncc(Cl)c(Nc3ccccc3P(C)(C)=O)n2)c(OC)cc1OC1CCN(C)C1 (stereo not drawn) |
| > 7.30 | > 7.30 | > 7.30 | > 7.30 | > 7.30 | C=CC(=O)Nc1cc(Nc2ncc(Cl)c(Nc3ccccc3P(C)(C)=O)n2)c(OC)cc1OCCN1CCCCC1 |
| > 7.30 | – | > 7.30 | > 7.30 | > 7.30 | COc1ccc(NC(=O)C#Cc2ccccc2)cc1Nc1ncc(Cl)c(Nc2ccccc2P(C)(C)=O)n1 |
| > 7.30 | – | > 7.30 | > 7.30 | > 7.30 | C=CC(=O)Nc1cc(Nc2ncc(Cl)c(Nc3ccccc3P(C)(C)=O)n2)c(OC)cc1C#CCN(CC)CC |
| – | > 7.30 | 6.60 to 7.00 | > 7.30 | > 7.30 | COc1ccc(NC(=O)/C=C/C(=O)N2CCN(C)CC2)cc1Nc1ncc(Cl)c(Nc2ccccc2P(C)(C)=O)n1 |

| pIC50 [1] | pIC50 (EGFR (human)) | pIC50 [2] | pIC50 [3] | pIC50 [4] | Structure (SMILES) |
| --- | --- | --- | --- | --- | --- |
| – | > 7.30 | 6.60 to 7.00 | > 7.30 | > 7.30 | C=CC(=O)Nc1ccc(OC)c(Nc2ncc(C#N)c(Nc3ccccc3P(C)(C)=O)n2)c1 |
| > 7.30 | – | > 7.30 | – | – | C=CC(=O)Nc1ccc(F)c(Nc2ncc(Cl)c(Nc3ccccc3P(C)(C)=O)n2)c1 |
| 7.00 to 7.30 | – | > 7.30 | > 7.30 | 7.00 to 7.30 | CC#CC(=O)Nc1cc(Nc2ncc(Cl)c(Nc3ccccc3P(C)(C)=O)n2)c(OC)cc1OC1COC1 |
| 7.00 to 7.30 | – | > 7.30 | > 7.30 | > 7.30 | C=CC(=O)Nc1cc(Nc2ncc(Cl)c(Nc3ccccc3P(C)(C)=O)n2)c(OC)cc1OC1COC1 |
| 6.60 to 7.00 | – | 6.60 to 7.00 | > 7.30 | > 7.30 | C=CC(=O)Nc1cc(Nc2ncc(Cl)c(Nc3ccccc3P(C)(C)=O)n2)c(OC)cc1C#CC1(N(C)C)CC1 |
| 7.00 to 7.30 | – | > 7.30 | 6.60 to 7.00 | – | CC#CC(=O)Nc1cc(Nc2ncc(Cl)c(Nc3ccccc3P(C)(C)=O)n2)c(OC)cc1OCC1CCOCC1 |
| 7.00 to 7.30 and > 7.30 | > 7.30 | 7.00 to 7.30 and > 7.30 | – | > 7.30 | C=CC(=O)Nc1cc(Nc2ncc(Cl)c(Nc3ccccc3P(C)(C)=O)n2)c(OC)cc1N1CCC(N2CCN(C)CC2)CC1 |
| 7.00 to 7.30 | – | > 7.30 | > 7.30 | 7.00 to 7.30 | C=C(F)C(=O)Nc1ccc(OC)c(Nc2ncc(Cl)c(Nc3ccccc3P(C)(C)=O)n2)c1 |
| – | > 7.30 | 6.60 to 7.00 | > 7.30 | > 7.30 | C=CC(=O)Nc1cc(Nc2ncc(Cl)c(Nc3ccccc3P(C)(C)=O)n2)c(OC)cc1CCN1CCN(C)CC1 |
| 6.60 to 7.00 | – | > 7.30 | > 7.30 | > 7.30 | CNC(=O)/C=C\C(=O)Nc1ccc(OC)c(Nc2ncc(Cl)c(Nc3ccccc3P(C)(C)=O)n2)c1 |
| – | > 7.30 | 6.60 to 7.00 | > 7.30 | > 7.30 | C=CC(=O)Nc1cc(Nc2ncc(Cl)c(Nc3ccccc3P(C)(C)=O)n2)c(OC)cc1N1CCC(N2CCC(O)C2)C1 (stereo not drawn) |
| – | > 7.30 | 6.60 to 7.00 | > 7.30 | > 7.30 | C=CC(=O)Nc1cc(Nc2ncc(Cl)c(Nc3ccccc3P(C)(C)=O)n2)c(OC)cc1N1CCC(N2CCC(O)CC2)C1 (stereo not drawn) |
| – | > 7.30 | 6.60 to 7.00 | > 7.30 | > 7.30 | COc1cc(P(C)(C)=O)ccc1Nc1ncc(Cl)c(Oc2cccc(NC(=O)C#CCN(C)C)c2)n1 |
| – | > 7.30 | 6.60 to 7.00 | > 7.30 | > 7.30 | C=C(CN1CCNC(=O)C1)C(=O)Nc1ccc(OC)c(Nc2ncc(Cl)c(Nc3ccccc3P(C)(C)=O)n2)c1 |
| – | 7.00 to 7.30 | 6.60 to 7.00 | > 7.30 | > 7.30 | C=CC(=O)Nc1cc(Nc2ncc(Cl)c(Nc3ccccc3P(C)(C)=O)n2)c(OC)cc1OCC1CCN(C)CC1 |
| 6.60 to 7.00 | – | 7.00 to 7.30 | – | – | C=CC(=O)Nc1cc(Nc2ncc(Cl)c(Nc3ccccc3P(C)(C)=O)n2)c(OC)cc1OC1CN(C)C1 |
| – | 7.00 to 7.30 | – | > 7.30 | 6.60 to 7.00 | C=CC(=O)Nc1ccc(OC)c(Nc2cc(Nc3ccccc3P(C)(C)=O)ncn2)c1 |
| > 7.30 | – | > 7.30 | – | – | C=CC(=O)Nc1cc(Nc2ncc(Cl)c(Nc3ccccc3P(C)(C)=O)n2)c(OC)cc1OCC1CCCN1C (stereo not drawn) |
| 6.60 to 7.00 | – | 7.00 to 7.30 | > 7.30 | > 7.30 | CNC(=O)/C=C/C(=O)Nc1ccc(OC)c(Nc2ncc(Cl)c(Nc3ccccc3P(C)(C)=O)n2)c1 |
